The values that follow come from PubChem BioAssay AID328 (DTP/NCI, 2004).

Several values for one entry are separate records, joined by “and”; a condition that tells them apart may be missing. Identical values can stand only once. Inconclusive results and toxic doses are left out.

This assay relates to BDF1 mice, P388 leukemia ip, median survival T/C. Kind of assay: NCI In Vivo Anticancer Drug Screen. Data for tumor model P388 Leukemia (intraperitoneal) in B6D2F1 (BDF1) mice. The conditions noted are these: endpoint: median survival time, higher = longer survival. Put shortly:
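Each value expresses how treatment altered survival: treated-mouse outcome over vehicle-mouse outcome, both groups bearing the transplanted tumour.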

Where [1] appears, read: dose: 100.0 mg/kg/injection, schedule: Q01DX001 (ip), vehicle: Klucel (hydroxypropylcellulose) (HPC).
Setting [2] is: dose: 100.0 mg/kg/injection, schedule: Q04DX003 (ip), vehicle: Klucel (hydroxypropylcellulose) (HPC).
Setting [3] is: dose: 200.0 mg/kg/injection, schedule: Q04DX003 (ip), vehicle: Klucel (hydroxypropylcellulose) (HPC).
Setting [4] is: dose: 400.0 mg/kg/injection, schedule: Q04DX003 (ip), vehicle: Klucel (hydroxypropylcellulose) (HPC).
The mark [5] stands for this setting: dose: 400.0 mg/kg/injection, schedule: Q04DX003 (ip), vehicle: saline with Tween-80.
[6] abbreviates: dose: 50.0 mg/kg/injection, schedule: Q01DX009 (ip), vehicle: saline with Tween-80.
Setting [7] is: dose: 100.0 mg/kg/injection, schedule: Q01DX009 (ip), vehicle: saline with Tween-80.
[8] abbreviates: dose: 200.0 mg/kg/injection, schedule: Q01DX009 (ip), vehicle: saline with Tween-80.
Setting [9] is: dose: 25.0 mg/kg/injection, schedule: Q01DX009 (ip), vehicle: saline with Tween-80.

Turning to `O=C1c2ccccc2CCC12OC2c1ccc(Cl)cc1` (stereo not given), the T/C under setting [1] was 95 % of control; the T/C under setting [2] is 100 % of control; the T/C (dose: 100.0 mg/kg/injection, schedule: Q04DX003 (ip), vehicle: saline with Tween-80) is 91 % of control; the T/C (dose: 200.0 mg/kg/injection, schedule: Q01DX001 (ip), vehicle: Klucel (hydroxypropylcellulose) (HPC)) was 100 % of control; the T/C under setting [3] is 104 % of control; the T/C (dose: 200.0 mg/kg/injection, schedule: Q04DX003 (ip), vehicle: saline with Tween-80) was 104 % of control. Besides, the T/C was 90 % of control (dose: 400.0 mg/kg/injection, schedule: Q01DX001 (ip), vehicle: Klucel (hydroxypropylcellulose) (HPC)); 104 % of control under setting [4]; 95 % of control under setting [5].

As to `O=C(O)c1c(Cl)c(Cl)c(Cl)c(Cl)c1C(=O)O.O=C(O)c1c(Cl)c(Cl)c(Cl)c(Cl)c1C(=O)O.[Pt]`, the T/C by setting is: (dose: 25.0 mg/kg/injection, schedule: Q04DX003 (ip), vehicle: saline sonified) 115 % of control; (dose: 50.0 mg/kg/injection, schedule: Q04DX003 (ip), vehicle: saline sonified) 120 % of control.

Consider `OC(CN(CCCl)CCCl)C(O)C(O)C(O)CN(CCCl)CCCl` (stereo not given), for which the T/C runs as follows: (dose: 0.13 mg/kg/injection, schedule: Q04DX003 (ip), vehicle: saline) 150 % of control; (dose: 0.2 mg/kg/injection, schedule: Q04DX003 (ip), vehicle: saline) 166 % of control; (dose: 0.25 mg/kg/injection, schedule: Q04DX003 (ip), vehicle: saline) 155 % of control; (dose: 0.3 mg/kg/injection, schedule: Q04DX003 (ip), vehicle: saline) 191 % of control; (dose: 0.44 mg/kg/injection, schedule: Q04DX003 (ip), vehicle: saline) 212 % of control; (dose: 0.5 mg/kg/injection, schedule: Q04DX003 (ip), vehicle: saline) 183 % of control. Also, the T/C is, setting by setting: (dose: 0.67 mg/kg/injection, schedule: Q01DX009 (ip), vehicle: saline) 241 % of control; (dose: 1.0 mg/kg/injection, schedule: Q01DX009 (ip), vehicle: saline) 219 % of control; (dose: 1.0 mg/kg/injection, schedule: Q04DX003 (ip), vehicle: saline) 177 % of control and 213 % of control; (dose: 1.5 mg/kg/injection, schedule: Q01DX009 (ip), vehicle: saline) 213 % of control; (dose: 1.5 mg/kg/injection, schedule: Q04DX003 (ip), vehicle: saline) 272 % of control and 177 % of control; (dose: 2.0 mg/kg/injection, schedule: Q04DX003 (ip), vehicle: saline) 281 % of control. In addition, the T/C (dose: 2.25 mg/kg/injection, schedule: Q04DX003 (ip), vehicle: saline) is 245 % of control; the T/C (dose: 6.0 mg/kg/injection, schedule: Q04DX003 (ip), vehicle: saline) was 86 % of control; the T/C (dose: 26.0 micrograms/kg/injection, schedule: Q04DX003 (ip), vehicle: saline) is 100 % of control; the T/C (dose: 40.0 micrograms/kg/injection, schedule: Q04DX003 (ip), vehicle: saline) was 112 % of control; the T/C (dose: 60.0 micrograms/kg/injection, schedule: Q04DX003 (ip), vehicle: saline) is 120 % of control.

For the compound `COC(=O)CCCCCCCC(=O)OCC#CC#CCOC(=O)CCCCCCCC(=O)OC`, the T/C runs as follows: under setting [2], 109 % of control; under setting [3], 104 % of control; under setting [4], 104 % of control.

Turning to `OC(c1ccccc1)c1ccccc1CN1CCCNC1=S` (stereo not given), the T/C under setting [6] is 95 % of control, the T/C under setting [7] was 103 % of control and the T/C under setting [8] is 94 % of control.

With `C1CC[N-]CC1.C1CC[N-]CC1.O=C(O)C(=O)O.[Pt+2]`, the T/C is 120 % of control (dose: 25.0 mg/kg/injection, schedule: Q01DX009 (ip), vehicle: saline); 123 % of control (dose: 80.0 mg/kg/injection, schedule: Q01DX005 (ip), vehicle: Klucel (hydroxypropylcellulose) (HPC)); 120 % of control (dose: 100.0 mg/kg/injection, schedule: Q01DX009 (ip), vehicle: saline); 100 % of control (dose: 200.0 mg/kg/injection, schedule: Q01DX009 (ip), vehicle: saline); 118 % of control (dose: 400.0 mg/kg/injection, schedule: Q04DX003 (ip), vehicle: saline).

Regarding `COc1ccc2c(c1)CCC(C)(C#N)C2=O` (stereo not given), the T/C under setting [9] is 100 % of control, the T/C under setting [6] was 100 % of control and the T/C under setting [7] is 104 % of control.

On to `O=c1oc2ccccc2c2c1Cc1c(oc3ccc4ccccc4c3c1=O)O2`, for which the T/C was 91 % of control under setting [6], 95 % of control under setting [7] and 92 % of control under setting [8].

With `O=C1OC(=O)c2c1ccc(Br)c2Br`, the T/C is, setting by setting: (dose: 100.0 mg/kg/injection, schedule: Q01DX009 (ip), vehicle: Klucel (hydroxypropylcellulose) (HPC)) 100 % of control; (dose: 200.0 mg/kg/injection, schedule: Q01DX009 (ip), vehicle: Klucel (hydroxypropylcellulose) (HPC)) 90 % of control; (dose: 400.0 mg/kg/injection, schedule: Q01DX009 (ip), vehicle: Klucel (hydroxypropylcellulose) (HPC)) 90 % of control.

As for `CC1=CC(OC2CCCCO2)C2CC1C2(C)C` (stereo not given), the T/C reads like this: under setting [2], 112 % of control; under setting [3], 112 % of control; under setting [4], 104 % of control.

Regarding `c1ccc(CCN2CCC3(CC2)COCc2ccccc23)cc1`, the T/C by setting is: (dose: 25.0 mg/kg/injection, schedule: Q01DX001 (ip), vehicle: saline with Tween-80) 104 % of control; (dose: 50.0 mg/kg/injection, schedule: Q01DX001 (ip), vehicle: saline with Tween-80) 90 % of control.

Regarding `CC(/C=N/NC(=[N-])N)=N\N=C(/[NH-])N.[Ni+2]`, the T/C is, setting by setting: (dose: 6.25 mg/kg/injection, schedule: Q01DX009 (ip), vehicle: Klucel (hydroxypropylcellulose) (HPC)) 97 % of control; (dose: 12.5 mg/kg/injection, schedule: Q01DX009 (ip), vehicle: Klucel (hydroxypropylcellulose) (HPC)) 97 % of control.

Take `CCC1CN2CCc3cc(O)c(O)cc3C2CC1CC1NCCc2c1[nH]c1ccc(O)cc21` (stereo not given): the T/C is, setting by setting: (dose: 1.0 mg/kg/injection, schedule: Q01DX009 (ip), vehicle: Klucel (hydroxypropylcellulose) (HPC)) 161 % of control; (dose: 2.0 mg/kg/injection, schedule: Q01DX009 (ip), vehicle: Klucel (hydroxypropylcellulose) (HPC)) 163 % of control.

As for `Cc1nc(-c2ccc(N=Cc3ccc(N(CCOS(C)(=O)=O)CCOS(C)(=O)=O)cc3C)cc2)cs1`, the T/C (dose: 11.0 mg/kg/injection, schedule: Q01DX009 (ip), vehicle: Klucel (hydroxypropylcellulose) (HPC)) is 247 % of control; the T/C (dose: 16.5 mg/kg/injection, schedule: Q01DX009 (ip), vehicle: Klucel (hydroxypropylcellulose) (HPC)) was 277 % of control and 176 % of control; the T/C (dose: 24.75 mg/kg/injection, schedule: Q01DX009 (ip), vehicle: Klucel (hydroxypropylcellulose) (HPC)) is 108 % of control; the T/C (dose: 25.0 mg/kg/injection, schedule: Q01DX009 (ip), vehicle: Klucel (hydroxypropylcellulose) (HPC)) was 111 % of control.

As to `CCOC(=O)C(CNc1ccccc1)C(=O)OCC`, the T/C is 95 % of control under setting [9]; 95 % of control under setting [6]; 95 % of control and 100 % of control under setting [7]; 100 % of control under setting [8]; 108 % of control and 109 % of control (dose: 400.0 mg/kg/injection, schedule: Q01DX009 (ip), vehicle: saline with Tween-80).

Regarding `c1ccc(C2C(c3ccnc4c3ccc3ccccc34)C(c3ccccc3)C2c2ccnc3c2ccc2ccccc23)cc1` (stereo not given), the T/C was 93 % of control and 91 % of control (dose: 25.0 mg/kg/injection, schedule: Q01DX001 (ip), vehicle: Klucel (hydroxypropylcellulose) (HPC)); 97 % of control and 100 % of control (dose: 50.0 mg/kg/injection, schedule: Q01DX001 (ip), vehicle: Klucel (hydroxypropylcellulose) (HPC)); 100 % of control and 106 % of control under setting [1].

Regarding `CN=S(=O)(OCCCCOS(=O)(=NC)c1ccc(C)cc1)c1ccc(C)cc1` (stereo not given), the T/C under setting [5] is 152 % of control.
